Laboratory results published in patent publication US10077261B2, “Imidazolin-5-one derivative useful as FASN inhibitors for the treatment of cancer” (Janssen Pharmaceutica NV, priority 2012, dated 2018).

Tests used:
A2780 ovarian cells [1] = assay: A2780 ovarian cell proliferation assay in lipid reduced medium, without palmitate (MTT); type: cell-based; details: Homo sapiens, A2780, 96 h; read-out: pIC50 A2780 Ovarian Cell, Without Palmitate (converted)
A2780 ovarian cells [2] = assay: A2780 ovarian cell proliferation assay in lipid reduced medium, with palmitate (MTT); type: cell-based; details: Homo sapiens, A2780, 96 h; read-out: pIC50 A2780 Ovarian Cell, With Palmitate (converted)
How it was run: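 In this palmitate-supplemented format, compound dilutions (30 μM down to 0.01 μM) are added to cells in lipid-reduced serum with 25 μM palmitate, 0.2% fatty-acid-free BSA and 0.25% ethanol. After four days (96 h) MTT absorbance at 544 nm is recorded and fitted by minimum sum of squares.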

[3] = biological target: T1, hFASN enzyme (full length) (Homo sapiens, UniProt P49327); assay: Fatty Acid Synthase (FASN) inhibition scintillation proximity assay; type: biochemical; details: for inhibition at 10 µM: read-out: Human FASN % inhibition @ 10 μM, 10 μM test compound; for IC50: read-out: Human FASN pIC50 (converted)
T1 construct: 10 μL hFASN enzyme (full length, 300 ng, purified in house); made in house
How it was run: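 Read-out relies on hydrophobic ³H-palmitate product, formed from ³H-acetyl-CoA and malonyl-CoA, binding streptavidin imaging beads, measured at 610±20 nm after at least 24 h. Full-length enzyme (300 ng) in phosphate buffer pH 7.5 with DTT; eight compound concentrations, 0.01–30 μM.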

T1 sequence (P49327 whole entry): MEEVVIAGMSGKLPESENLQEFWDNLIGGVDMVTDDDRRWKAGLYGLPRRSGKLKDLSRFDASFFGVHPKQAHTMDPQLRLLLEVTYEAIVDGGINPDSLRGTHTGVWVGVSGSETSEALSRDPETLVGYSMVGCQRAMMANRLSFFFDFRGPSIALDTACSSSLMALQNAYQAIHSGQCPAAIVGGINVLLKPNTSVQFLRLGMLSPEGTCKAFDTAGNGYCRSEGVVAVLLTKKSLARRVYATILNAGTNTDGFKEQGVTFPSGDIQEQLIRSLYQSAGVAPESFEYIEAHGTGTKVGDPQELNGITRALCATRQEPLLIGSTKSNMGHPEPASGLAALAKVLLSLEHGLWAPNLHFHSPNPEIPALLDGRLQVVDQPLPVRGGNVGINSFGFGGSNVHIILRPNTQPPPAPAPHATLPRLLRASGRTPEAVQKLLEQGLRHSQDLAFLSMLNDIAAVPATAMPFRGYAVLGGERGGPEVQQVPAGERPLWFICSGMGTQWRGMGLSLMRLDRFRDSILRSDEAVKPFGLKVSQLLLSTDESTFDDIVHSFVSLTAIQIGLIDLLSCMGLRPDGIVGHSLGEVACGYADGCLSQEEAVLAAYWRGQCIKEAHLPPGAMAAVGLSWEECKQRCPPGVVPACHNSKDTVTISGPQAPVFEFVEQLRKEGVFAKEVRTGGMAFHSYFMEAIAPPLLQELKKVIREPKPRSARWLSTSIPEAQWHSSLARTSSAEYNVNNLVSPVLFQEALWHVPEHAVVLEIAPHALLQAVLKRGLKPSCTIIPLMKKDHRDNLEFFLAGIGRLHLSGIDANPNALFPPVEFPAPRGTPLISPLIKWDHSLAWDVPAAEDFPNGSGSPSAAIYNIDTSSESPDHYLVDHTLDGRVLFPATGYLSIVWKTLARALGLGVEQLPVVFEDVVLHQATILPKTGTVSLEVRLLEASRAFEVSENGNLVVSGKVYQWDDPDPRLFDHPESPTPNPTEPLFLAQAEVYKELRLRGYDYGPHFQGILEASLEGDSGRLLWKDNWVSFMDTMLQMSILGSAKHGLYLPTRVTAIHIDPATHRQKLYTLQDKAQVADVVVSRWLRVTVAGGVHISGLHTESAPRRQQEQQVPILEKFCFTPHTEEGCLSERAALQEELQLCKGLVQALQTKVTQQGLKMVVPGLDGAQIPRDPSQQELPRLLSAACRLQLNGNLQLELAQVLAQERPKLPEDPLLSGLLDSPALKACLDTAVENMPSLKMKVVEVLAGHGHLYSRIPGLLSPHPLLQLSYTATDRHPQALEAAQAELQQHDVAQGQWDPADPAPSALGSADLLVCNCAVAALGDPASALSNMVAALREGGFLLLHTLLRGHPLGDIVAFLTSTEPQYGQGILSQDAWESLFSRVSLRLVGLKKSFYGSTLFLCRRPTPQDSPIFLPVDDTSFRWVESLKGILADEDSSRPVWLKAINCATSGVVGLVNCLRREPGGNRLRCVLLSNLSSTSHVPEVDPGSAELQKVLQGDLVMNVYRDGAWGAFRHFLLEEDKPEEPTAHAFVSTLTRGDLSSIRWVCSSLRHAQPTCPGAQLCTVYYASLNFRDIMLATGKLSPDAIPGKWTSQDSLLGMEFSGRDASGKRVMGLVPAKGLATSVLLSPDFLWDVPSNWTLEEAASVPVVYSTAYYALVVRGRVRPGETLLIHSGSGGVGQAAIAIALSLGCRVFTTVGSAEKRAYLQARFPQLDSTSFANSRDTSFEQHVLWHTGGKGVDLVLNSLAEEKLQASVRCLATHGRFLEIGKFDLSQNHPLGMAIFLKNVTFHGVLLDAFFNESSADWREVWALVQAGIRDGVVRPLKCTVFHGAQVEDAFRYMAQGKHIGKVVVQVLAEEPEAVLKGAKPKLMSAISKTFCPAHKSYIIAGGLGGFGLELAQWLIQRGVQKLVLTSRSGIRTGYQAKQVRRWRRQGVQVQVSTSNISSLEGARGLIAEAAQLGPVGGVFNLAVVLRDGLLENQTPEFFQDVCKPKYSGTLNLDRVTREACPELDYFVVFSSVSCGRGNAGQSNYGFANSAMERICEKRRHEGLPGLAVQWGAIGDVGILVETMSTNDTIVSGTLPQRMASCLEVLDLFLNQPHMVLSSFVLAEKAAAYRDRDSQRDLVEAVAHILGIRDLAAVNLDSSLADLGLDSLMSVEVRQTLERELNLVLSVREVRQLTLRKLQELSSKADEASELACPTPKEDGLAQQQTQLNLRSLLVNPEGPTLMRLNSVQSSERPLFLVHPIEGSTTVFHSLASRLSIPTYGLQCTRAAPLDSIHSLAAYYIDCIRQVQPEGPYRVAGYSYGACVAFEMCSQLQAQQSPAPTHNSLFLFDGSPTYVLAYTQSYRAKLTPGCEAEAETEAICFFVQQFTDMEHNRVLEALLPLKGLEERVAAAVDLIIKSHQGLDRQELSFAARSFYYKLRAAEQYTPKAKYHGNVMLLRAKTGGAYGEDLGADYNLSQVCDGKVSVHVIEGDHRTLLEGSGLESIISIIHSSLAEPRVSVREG

IC50 (A2780 ovarian cells [1]) [µM]	IC50 (A2780 ovarian cells [2]) [µM]	inhibition at 10 µM [3] [%]	IC50 [3] [µM]	SMILES
0.148	> 10	111	–	O=C(C1CC1)N1CC(CN2C(=O)C3(CCCC3)N=C2c2ccc(-c3ccc4[nH]ccc4c3)cc2)C1 [compound 78, 3-{[1-(Cyclopropylcarbonyl)azetidin-3-yl]methyl}-2-[4-(1H-indol-5-yl)phenyl]-1,3-diazaspiro[4.4]non-1-en-4-one]
3.63	4.37	65	~4.27	Cc1cc(Cl)c2ccc(-c3ccc(C4=NC5(CC5)C(=O)N4CC4CN(C(=O)C5(C)CC5)C4)c(C)c3)cc2n1 [compound 597, 5-[4-(4-Chloro-2-methylquinolin-7-yl)-2-methylphenyl]-6-({1-[(1-methylcyclopropyl)carbonyl]azetidin-3-yl}methyl)-4,6-diazaspiro[2.4]hept-4-en-7-one]
1.7	> 10	66	4.9	O=C(C1CC1)N1CC(CN2C(=O)C3(CC3)N=C2c2ccc(-c3cc4cnn(CCO)c4cc3F)cc2)C1 [compound 552, 6-{[1-(Cyclopropylcarbonyl)azetidin-3-yl]methyl}-5-{4-[6-fluoro-1-(2-hydroxyethyl)-1H-indazol-5-yl]phenyl}-4,6-diazaspiro[2.4]hep-t-4-en-7-one]
> 10	> 10	15	> 10	O=C(N1CC(CN2C(=O)C3(CCOC3)N=C2c2ccc(-c3ccc4occc4c3)cc2)C1)C(F)(F)F (stereo not shown) [compound 897, 2-(4-(benzofuran-5-yl)phenyl)-3-((1-(2,2,2-trifluoroacetyl)azetidin-3-yl)methyl)-7-oxa-1,3-diazaspiro[4.4]non-1-en-4-one]
~1.95	> 10	83	1.58	O=C(C1CC1)N1CC(CN2C(=O)C3(CC3)N=C2c2ccc(-c3ccc4c(cnn4CCO)c3)cc2F)C1 [compound 527, 6-{[1-(Cyclopropylcarbonyl)azetidin-3-yl]methyl}-5-{2-fluoro-4-[1-(2-hydroxyethyl)-1H-indazol-5-yl]phenyl}-4,6-diazaspiro[2.4]hept-4-en-7-one]
~2.4	9.12	108	0.204	O=C(N1CCCC1)N1CC[C@@H](CN2C(=O)C3(CCCC3)N=C2c2ccc(-c3ccc4occc4c3)cc2)C1 [compound 117, 2-[4-(1-Benzofuran-5-yl)phenyl]-3-{[(3S)-1-(pyrrolidin-1-ylcarbonyl)pyrrolidin-3-yl]methyl}-1,3-diazaspiro[4.4]non-1-en-4-one]
> 10	> 10	-15	> 10	CC(C)(O)c1ccc(-c2ccc(C3=NC4(CC4)C(=O)N3CC3CN(C(=O)C4CC4)C3)cc2)nc1 [compound 794, 6-((1-(cyclopropanecarbonyl)azetidin-3-yl)methyl)-5-(4-(5-(2-hydroxypropan-2-yl)pyridin-2-yl)phenyl)-4,6-diazaspiro[2.4]hept-4-en-7-one]
5.25	> 10	56	8.32	Cc1cc(-c2cccc(S(C)(=O)=O)c2)ccc1C1=NC2(CC2)C(=O)N1C[C@@H]1CCN(C(=O)C2CC2)C1 [compound 633, 6-{[(3R)-1-(Cyclopropylcarbonyl)pyrrolidin-3-yl]methyl}-5-[3-methyl-3′-(methylsulfonyl)biphenyl-4-yl]-4,6-diazaspiro[2.4]hept-4-en-7-one]
> 10	> 10	47	> 10	Cc1ccc2c(-c3ccc(C4=NC5(CC5)C(=O)N4CC4CN(C(=O)C5CC5)C4)cc3)cccc2n1 [compound 790, 6-((1-(cyclopropanecarbonyl)azetidin-3-yl)methyl)-5-(4-(2-methy7lquinolin-5-yl)phenyl)-4,6-diazaspiro[2.4]jept-4-en-7-one]
~2.24	11	107	0.174	O=C(CC(F)(F)F)N1CC[C@@H](CN2C(=O)C3(CCCC3)N=C2c2ccc(-c3ccc4occc4c3)cc2)C1 [compound 119, 2-[4-(1-Benzofuran-5-yl)phenyl]-3-{[(3R)-1-(3,3,3-trifluoropropanoyl)pyrrolidin-3-yl]methyl}-1,3-diazaspiro[4.4]non-1-en-4-one]
> 10	> 10	-10	> 10	Cn1cc(-c2ccc(-c3ccc(C4=NC5(CCOC5)C(=O)N4CC4CN(C(=O)C(F)(F)F)C4)cc3)cc2)cn1 (stereo not shown) [compound 899, 2-(4′-(1-methyl-1H-pyrazol-4-yl)-[1,1′-biphenyl]-4-yl)-3-((1-(2,2,2-trifluoroacetyl)azetidin-3-yl)methyl)-7-oxa-1,3-diazaspiro[4.4]non-1-en-4-one]
> 10	> 10	33	> 10	Cn1cc(-c2ccc(-c3ccc(C4=NC5(CCOC5)C(=O)N4CC4CCN(C(=O)C(F)(F)F)C4)cc3)cc2)cn1 (stereo not shown) [compound 940, 2-(4′-(1-methyl-1H-pyrazol-4-yl)-[1,1′-biphenyl]-4-yl)-3-((1-(2,2,2-trifluoroacetyl)pyrrolidin-3-yl)methyl)-7-oxa-1,3-diazaspiro[4.4]non-1-en-4-one]
~4.79	> 10	71	3.98	Cc1cc(-c2ccc3ccc(C(F)(F)F)nc3c2)ccc1C1=NC2(CC2)C(=O)N1CC1CN(C(=O)C2(C)CC2)C1 [compound 620, 6-({1-[(1-Methylcyclopropyl)carbonyl]azetidin-3-yl}methyl)-5-{2-methyl-4-[2-(trifluoromethyl)quinolin-7-yl]phenyl}-4,6-diazaspiro[2.4]hept-4-en-7-one]
> 6.17	> 6.17	-2	> 10	Cc1cc(-c2ccc(C3=NC4(CC4)C(=O)N3CC3CN(C(=O)C4CC4)C3)cc2)nc2cc(Br)ccc12 [compound 791, 5-(4-(7-bromo-4-methylquinolin-2-yl)phenyl)-6-((1-(cyclopropanecarbonyl)azetidin-3-yl)methyl)4,6-diazaspiro[2.4]hept-4-en-7-one]
> 10	> 10	2	> 10	Cn1cc(-c2ccc(-c3ccc(C4=NC5(CCOCC5)C(=O)N4C[C@@H]4CCN(S(C)(=O)=O)C4)cc3)cc2)cn1 [compound 918, (S)-2-(4′-(1-metrhyl-1H-pyrazol-4-yl)-[1,1′-biphenyl]-4-yl)-3-((1-(methylsulfonyl)pyrrolidin-3-yl)methyl)-8-oxa-1,3-diazaspiro[4.5]dec-1-en-4-one]
3.47	~10	80	1.82	CC(C)n1ncc2ccc(-c3ccc(C4=NC5(CC5)C(=O)N4CC4CN(C(=O)C5CC5)C4)cc3)cc21 [compound 550, 6-{[1-(Cyclopropylcarbonyl)azetidin-3-yl]methyl}-5-{4-[1-(1-methylethyl)-1H-indazol-6-yl]phenyl}-4,6-diazaspiro[2.4]hept-4-en-7-one]
3.8	> 10	74	2.04	Cn1ncc2cc(-c3ccc(C4=NC5(CC5)C(=O)N4CC4CN(C(=O)C5CC5)C4)cc3Cl)ccc21 [compound 612, 5-[3-Chloro-4-(1-methyl-1H-indazol-5-yl)phenyl]-6-{[1-(cyclopropylcarbonyl)azetidin-3-yl]methyk}-4,6-diazaspiro[2.4]hept-4-en-7-one]
